Values of other authors in publication PMC6698139 (Bioorganic & medicinal chemistry, 2019).

Tested on: S1PR2
Conditions: [33P]S1P competitive binding assay

Cc1cc(C(=O)Cn2cc(C#N)ccc2=O)c(C)n1Cc1ccccc1 [CYM-5520]
competition with S1P: not competitive
